Laboratory results: US5798375A, “Treatment of arteriosclerosis and xanthoma” (Sankyo Company, Limited, priority 1995, dated 1998)

How the values were obtained:
[1] = Example 1: plasma total cholesterol in WHHL rabbits; assay type: in vivo; details: pravastatin 50 mg/kg/day oral gavage, troglitazone in diet containing 100 mg/kg
Protocol: (§1) WHHL rabbits [2-3 months of age, the Watanabe heritable hyperlipidemic rabbit described in Biochimica et Biophysica Acta, 960, 294-302 (1988)] were randomly assigned to a control group (7 animals, group A), a group receiving pravastatin alone (5 animals, Group B), a group receiving troglitazone alone (7 animals, Group C), and a group receiving a combination of both active substances (6 animals, Group D). Pravastatin was administered orally by gavage at a dose of 50 mg/kg/day once-daily and troglitazone was given in the diet, containing 100 mg/kg of the substance for 32 weeks. The ingested amount was limited to a daily 120 g per rabbit. Blood was withdrawn from the animal immediately before starting the study and 4, 8, 12, 16, 20, 24, 28 and 32 weeks after starting the study and the total cholesterol levels (mg/dl) were determined for each blood sample. The levels are reported as a percentage (%) of the levels measured immediately before starting the study. The animals were sacrificed and necropsied at week 32 to examine (a) the percent lesion area (%) in the total, thoracic or abdominal portion of the aorta; (b) the stenosis (%) of the coronary arteries and (c) the incidence (%) of xanthoma in the digital joints.

WHHL rabbits [2] = assay: Example 1: percent lesion area of the aorta in WHHL rabbits; assay type: in vivo; details: week 32, mean ± standard error, pravastatin 50 mg/kg/day, troglitazone in diet containing 100 mg/kg, * p < 0.05 vs control
Protocol: as §1
(§2) The values actually measured are represented as an average value±standard error in those Tables.

WHHL rabbits [3] = assay: Example 1: stenosis of the coronary arteries in WHHL rabbits; assay type: in vivo; details: week 32
Protocol: as §1, §2

WHHL rabbits [4] = assay: Example 1: incidence of xanthoma in the digital joints of WHHL rabbits; assay type: in vivo
Protocol: as §1, §2

WHHL rabbits [5] = assay: Example 2: percentage area covered by lesions, aortic arch and whole aorta; assay type: in vivo, Male WHHL rabbits; design: Lesion Area, Aortic Arch, percentage against the control group / Lesion Area, Total Aorta, percentage against the control group: concentration or dose not given beside the values; details: oral, eight months
Protocol: (§3) Each test compound was administered for eight months to the rabbits in the form of an aqueous suspension (0.5% carboxymethylcellulose added). In the control group, a 0.5% carboxymethylcellulose solution only was administered.
The values actually measured are represented by the mean value plus or minus standard error. The numbers in parentheses represent the percentage lesion area against the control group.
*p<0.05, **p<0.01; significant difference against the control group under the [Mann-Whitney's U-Test A significant difference (p<0.05) was observed between Groups B and F, between Groups C and E and between Groups D and F at the aortic arch, and between Groups C and E over the total aorta.

WHHL rabbits [6] = assay: Example 2: aortic cholesterol content; assay type: in vivo, Male WHHL rabbits
Protocol: as §3
The aortic cholesterol content was measured The tunica media and tunica intima at the aortic arch and at the thoracic and abdominal aorta were peeled away with tweezers and cut into pieces. The pieces were extracted with a 2:1 by volume mixture of chloroform and methanol.
The chloroform phase was separated and evaporated to dryness and the residue was dissolved in isopropanol. The total cholesterol and the free cholesterol were measured by a conventional enzymatic method.
Data are expressed by the mean plus or minus standard error (mg/g tissue). The values in parentheses indicate the percentage against the control. A significant difference against the control group was observed by the unpaired student t-test: […]

[7] = tested on: Male New Zealand white rabbits; assay: Example 3: regression of established atherosclerotic lesions in the cholesterol-fed rabbit model; assay type: in vivo; details: for Rate of lesion area, against the control group: figure in parentheses; for Rate of lesion area: thoracic aorta, two months, mean ± standard error, control 29 ± 20
Protocol: The rabbits were grouped randomly (3-9 animals per group) and the test samples were administered orally for two months, while they were fed with a normolipidaemic diet. […] The results are shown in terms of the percentage of lesion area in the thoracic aorta.

Male Fl b hamsters = assay: Example 4: regression of preformed atherosclerosis in hamsters (Oil Red O stained area); assay type: in vivo
Protocol: Synergism of HMG CoA reductase inhibitors and thiazolidinedione insulin sensitizers was examined by another regression model, i.e. the regression of preformed atherosclerosis in hamsters. Male Fl b hamsters (weight about 130 g,) were given a diet containing 0.05% cholesterol for 13 weeks. They were grouped randomly (2-7 animals per group), and then the test samples were administered for 4 weeks while the hamsters were given a normolipidaemic diet. Pravastatin and fluvastatin were mixed with drinking water at the dose of 3 mg/kg and 1.5 mg/kg, respectively, while troglitazone was mixed with the diet at the dose of 30 mg/kg or 100 mg/kg.
In the case of the combination groups, the dosage was 3 mg/kg+30 mg/kg or 3 mg/kg+100 mg/kg for the pravastatin+troglitazone group, and 1.5 mg/kg+30 mg/kg for the fluvastatin+troglitazone group.
Namely, the aortic arch was stained with ORO to prepare en face specimens. The percentage area which was positive to the ORO stain over the whole area was measured to represent the degree of aortic lesion.

[8] = tested on: coronary arteriosclerosis and xanthoma; details: literature: Biochim. Biophys. Acta 960, 294-302 (1988); Atherosclerosis 83, 69-80 (1990); cited from earlier work

CC[C@H](C)C(=O)O[C@H]1C[C@H](O)C=C2C=C[C@H](C)[C@H](CC[C@@H](O)C[C@@H](O)CC(=O)O)[C@H]21 [Pravastatin, sodium 1,2,6,7,8,8a-hexahydro-6,8-tetrahydroxy-2-methyl-1-naphthaleneheptanoate]
total cholesterol level, % of level before starting the study ([1]; week 4): 87% | total cholesterol level, % of level before starting the study ([1]; week 8): 87% | total cholesterol level, % of level before starting the study ([1]; week 12): 81% | total cholesterol level, % of level before starting the study ([1]; week 16): 81% | total cholesterol level, % of level before starting the study ([1]; week 20): 75% | total cholesterol level, % of level before starting the study ([1]; week 24): 68% | total cholesterol level, % of level before starting the study ([1]; week 28): 68% | total cholesterol level, % of level before starting the study ([1]; week 32): 60% | Lesion area, Abdominal aorta (WHHL rabbits [2]; control 29.9 ± 4.4): 28.2 ± 8.1% | Lesion Area, Total Aorta (WHHL rabbits [2]; control 65.7 ± 3.9): 53.8 ± 8.2% | Lesion area, Thoracic aorta (WHHL rabbits [2]; control 79.3 ± 5.4): 64.6 ± 10.4% | Coronary stenosis, RCA (right coronary artery) (WHHL rabbits [3]; control 13): 18% | Coronary stenosis, LAD (left anterior descending artery) (WHHL rabbits [3]; control 24): 16% | Coronary stenosis, LSP (left septal artery) (WHHL rabbits [3]; control 40): 9% | Coronary stenosis, LCX (left circumflex artery) (WHHL rabbits [3]; control 47): 34% | Coronary stenosis, MLC (main left coronary artery) (WHHL rabbits [3]; control 61): 71% | Coronary stenosis, MRC (main right coronary artery) (WHHL rabbits [3]; control 79): 81% | Incidence of xanthoma, Foreleg (WHHL rabbits [4]; week 32, control 100 (14/14)): 80% | Incidence of xanthoma, Hind leg (WHHL rabbits [4]; week 32, control 100 (14/14)): 80% | Incidence of xanthoma, Total (WHHL rabbits [4]; week 32, control 100 (28/28)): 80% | Lesion Area, Aortic Arch, percentage against the control group (WHHL rabbits [5]; number in parentheses): 72% | Lesion Area, Total Aorta, percentage against the control group (WHHL rabbits [5]; number in parentheses): 70% | Lesion Area, Total Aorta (WHHL rabbits [5]; pravastatin 50, pioglitazone 20, Compound A 10 mg/kg, mean ± standard error, *p<0.05, **p<0.01 vs control): 35 ± 6% | Lesion Area, Aortic Arch (WHHL rabbits [5]; pravastatin 50, pioglitazone 20, Compound A 10 mg/kg, mean ± standard error, control 82 ± 5, *p<0.05, **p<0.01 vs control): 59 ± 11% | Cholesterol level of Thoracic and Abdominal Aorta, Esterified (WHHL rabbits [6]; mean ± standard error, control 5.3 ± 1.7): 4.7 ± 0.7 mg/g tissue | Cholesterol Content of Aortic Arch, Esterified (WHHL rabbits [6]; mean ± standard error, control 6.5 ± 1.4, *p < 0.05): 6.4 ± 1.1 mg/g tissue | Cholesterol level of Thoracic and Abdominal Aorta, Free (WHHL rabbits [6]; mean ± standard error, control 14.8 ± 2.3, *p < 0.05 vs control): 12.5 ± 1.3 mg/g tissue | Cholesterol level of Thoracic and Abdominal Aorta, Total (WHHL rabbits [6]; mean ± standard error, control 20.1 ± 2.3, *p < 0.05, **p < 0.02 vs control): 17.2 ± 1.6 mg/g tissue | Cholesterol Content of Aortic Arch, Free (WHHL rabbits [6]; mean ± standard error, control 20.6 ± 2.9): 18.6 ± 4.4 mg/g tissue | Cholesterol Content of Aortic Arch, Total (WHHL rabbits [6]; mean ± standard error, control 27.1 ± 3.3): 24.9 ± 5.2 mg/g tissue | Cholesterol Content of Aortic Arch, Esterified, percentage against the control (WHHL rabbits [6]; number in parentheses): 98% | Cholesterol Content of Aortic Arch, Free, percentage against the control (WHHL rabbits [6]; number in parentheses): 90% | Cholesterol Content of Aortic Arch, Total, percentage against the control (WHHL rabbits [6]; number in parentheses): 92% | Cholesterol level of Thoracic and Abdominal Aorta, Esterified, percentage against the control (WHHL rabbits [6]; number in parentheses): 89% | Cholesterol level of Thoracic and Abdominal Aorta, Free, percentage against the control (WHHL rabbits [6]; number in parentheses): 84% | Cholesterol level of Thoracic and Abdominal Aorta, Total, percentage against the control (WHHL rabbits [6]; number in parentheses): 86% | Rate of lesion area, against the control group ([7]; 3 mg/kg): 103 | Rate of lesion area, against the control group ([7]; 5 mg/kg): 79 | Rate of lesion area ([7]; 3 mg/kg oral): 30 ± 12% | Rate of lesion area ([7]; 5 mg/kg oral): 23 ± 9% | Stained Area, % of Control (Male Fl b hamsters; 3 mg/kg): 106% | Stained Area ORO (Male Fl b hamsters; aortic arch, 3 mg/kg in drinking water, 4 weeks, control 1.82 ± 0.44): 1.93 ± 0.33% | regression of aortic lesions (Male Fl b hamsters; pravastatin 3 mg/kg, fluvastatin 1.5 mg/kg, troglitazone 30 mg/kg alone, combinations): no regression of aortic lesions | prevention of coronary arteriosclerosis and xanthoma, efficacy [8]: may be prevented in rabbits receiving pravastatin, but its efficacy remains insufficient
